Results reported in patent US10167313B2, “Selective caspase inhibitors and uses thereof” (Genesis Technologies Limited, priority 2008, dated 2019).
Structures can show the parent of a compound that is named as a salt. Where two headings read alike, the source gives them in different places. Non-standard residues stand in square brackets, D forms with d. Residues, ends and D or L forms follow the SMILES beside them. *: point of attachment. Phg = N[C@H](C(=O)O)c1ccccc1; Cbz = O=C(OCc1ccccc1)*; OtBu = CC(C)(C)O*

What was measured:
caspase-3 = caspase-3 (Homo sapiens (Human), UniProt P42574); assay: Caspase-3 Inhibitor Drug Screening Kit, fluorometric enzymatic assay; type: biochemical; details: for IC50: 30-minute incubation at 37° C., AFC liberation
Experimental: (§1) The level of inhibition of caspase-1, -3, -5, -7, -9 activity was determined by comparison of the relative fluorescence intensity in samples with or without the compound.

caspase-5 = caspase-5 (Homo sapiens (Human), UniProt P51878); assay: Caspase-5 Inhibitor Drug Screening Kit, fluorometric enzymatic assay; details: for IC50: read-out: Caspase enzymatic activity, IC50 (uM) Caspase 5, 30-minute incubation at 37° C., AFC liberation
Experimental: as §1

caspase-9 = caspase-9 (Homo sapiens (Human), UniProt P55211); assay: Caspase-9 Inhibitor Drug Screening Kit, fluorometric enzymatic assay
Experimental: as §1

caspase-7 = caspase-7 (Homo sapiens (Human), UniProt P55210); assay: Caspase-7 Inhibitor Drug Screening Kit, fluorometric enzymatic assay
Experimental: as §1

caspase-1 = caspase-1 (Homo sapiens (Human), UniProt P29466); assay: Caspase-1 Inhibitor Drug Screening Kit, fluorometric enzymatic assay; details: for IC50: read-out: Caspase enzymatic activity, IC50 (uM) Caspase 1, 30-minute incubation at 37° C., AFC liberation
Experimental: as §1

Caspase 3/7 (Glo3/7) = assay: Glo3/7 assay
Hela cells = assay: Inhibition of proteolytic cleavage of PARP in staurosporine-treated live Hela cells; type: cell-based; details: for effectivity in inhibiting PARP cleavage (in words): relative to DEVD-fmk
Experimental: To test the efficacy of caspase-3 inhibitors at the cellular level, the ability of selected compounds to inhibit the proteolytic cleavage of PARP (poly ADP-ribose polymerase) was evaluated in live Hela cells.
Briefly, in this assay Hela cells are seeded in 96 well plates and incubated for 4 hours with staurosporine, a well characterized inducer of apoptosis, alone or together with different concentrations of compound (50, 25, 10 and 3 uM). After formaldehyde-based fixation, the cells are stained with a fluorescein-labeled anti-cleaved PARP antibody (Cell signaling, Cat#: 9547) and counterstained with Hoechst33342 (Invitrogen, Cat#: H3570) to mark all nuclei. Fluorescence images are taken on a Cellomics™ microscope system (Thermo Scientific, Pittsburgh, USA) with the Hoechst stain in the blue channel and the cleaved PARP antibody stain in the green channel. The percentage of cleaved PARP positive cells is determined by calculating the ratio between nuclei with a cleaved PARP antibody staining above a certain threshold and all (Hoechst positive) nuclei. The efficacy of caspase-3 inhibition is determined by calculating the ratio between cleaved PARP positive cells after staurosporine incubation together with compounds and staurosporine incubation without compounds.

[1] = read-out: Caspase enzymatic activity, IC50 (uM) Caspase 9, 30-minute incubation at 37° C., AFC liberation
[2] = read-out: Caspase enzymatic activity, IC50 (uM) Caspase 7, 30-minute incubation at 37° C., AFC liberation
[3] = Homo sapiens, 50 uM, relative to DEVDFMK, read-out: % of inhibition with compound relative to DEVDFMK
[4] = Homo sapiens, read-out: % inhibition of PARP cleavage at 50 uM compound, staurosporine 4 hours, 50 uM compound

caspase-7, sequence (P55210 24-198): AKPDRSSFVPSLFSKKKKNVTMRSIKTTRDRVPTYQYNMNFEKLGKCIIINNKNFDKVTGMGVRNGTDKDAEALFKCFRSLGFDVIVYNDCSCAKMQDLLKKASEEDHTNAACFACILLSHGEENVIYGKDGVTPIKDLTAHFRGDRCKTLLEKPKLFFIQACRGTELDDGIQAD
caspase-7, sequence (P55210 207-303): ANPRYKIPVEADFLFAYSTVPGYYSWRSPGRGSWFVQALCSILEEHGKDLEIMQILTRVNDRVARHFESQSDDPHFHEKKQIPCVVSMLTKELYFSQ
caspase-1, sequence (P29466 120-297): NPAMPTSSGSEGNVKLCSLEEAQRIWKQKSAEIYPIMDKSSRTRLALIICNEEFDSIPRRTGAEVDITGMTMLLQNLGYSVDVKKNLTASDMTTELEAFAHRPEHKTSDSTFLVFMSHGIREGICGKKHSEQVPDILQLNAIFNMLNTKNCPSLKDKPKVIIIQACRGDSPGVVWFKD
caspase-1, sequence (P29466 317-404): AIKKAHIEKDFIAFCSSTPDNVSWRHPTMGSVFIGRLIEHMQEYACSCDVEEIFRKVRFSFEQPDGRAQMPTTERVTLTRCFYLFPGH
caspase-9, sequence (P55211 1-315): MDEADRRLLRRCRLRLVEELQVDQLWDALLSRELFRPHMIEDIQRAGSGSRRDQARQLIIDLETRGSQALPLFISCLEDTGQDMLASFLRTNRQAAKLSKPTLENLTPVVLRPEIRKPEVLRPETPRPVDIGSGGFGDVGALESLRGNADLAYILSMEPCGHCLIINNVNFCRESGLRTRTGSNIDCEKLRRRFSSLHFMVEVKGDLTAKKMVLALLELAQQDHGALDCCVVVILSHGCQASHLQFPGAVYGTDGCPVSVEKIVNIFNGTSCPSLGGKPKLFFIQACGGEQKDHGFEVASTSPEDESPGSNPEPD
caspase-9, sequence (P55211 331-416): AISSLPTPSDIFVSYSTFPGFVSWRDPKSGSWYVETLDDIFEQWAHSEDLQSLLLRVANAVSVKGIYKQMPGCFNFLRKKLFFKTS
caspase-5, sequence (P51878 137-327): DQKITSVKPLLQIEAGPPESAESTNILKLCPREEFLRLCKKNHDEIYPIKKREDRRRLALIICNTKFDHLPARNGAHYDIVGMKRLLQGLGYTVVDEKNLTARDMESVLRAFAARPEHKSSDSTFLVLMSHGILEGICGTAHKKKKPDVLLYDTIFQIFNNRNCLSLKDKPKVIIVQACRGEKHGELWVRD
caspase-5, sequence (P51878 347-434): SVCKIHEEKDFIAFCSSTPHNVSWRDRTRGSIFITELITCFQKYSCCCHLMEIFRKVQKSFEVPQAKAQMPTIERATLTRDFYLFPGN
caspase-3, sequence (P42574 29-175): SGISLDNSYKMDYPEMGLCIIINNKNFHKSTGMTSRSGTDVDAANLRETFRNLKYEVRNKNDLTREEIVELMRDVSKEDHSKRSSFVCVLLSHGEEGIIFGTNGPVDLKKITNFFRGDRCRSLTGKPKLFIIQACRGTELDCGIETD
caspase-3, sequence (P42574 176-277): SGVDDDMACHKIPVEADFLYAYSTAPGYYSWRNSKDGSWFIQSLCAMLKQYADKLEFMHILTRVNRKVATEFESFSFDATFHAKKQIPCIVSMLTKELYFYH

| Structure (SMILES) | IC50 (caspase-3) [µM] | IC50 (caspase-5) [µM] | IC50 (caspase-9; [1]) [µM] | IC50 (caspase-1) [µM] | inhibition at 50 µM (Hela cells; [3]) [%] | inhibition at 50 µM (Hela cells; [4]) [%] | other results |
| --- | --- | --- | --- | --- | --- | --- | --- |
| CS(=O)(=O)/C=C/[C@@H](N)CC(=O)O.Cc1ccc(S(=O)(=O)O)cc1 [Compound 93, Aspmethyl vinyl sulfone tosyl salt] | > 10 | – | – | – | – | – | activity against caspase-3 (in words) (caspase-3): devoid of any activity |
| CC(C)[C@H](NC(=O)[C@@H](Cc1ccc2ccccc2n1)NC(=O)[C@H](CC(=O)O)NC(=O)OCc1ccccc1)C(=O)N[C@H](/C=C/S(C)(=O)=O)CC(=O)O (stereo in doubt) [Compound 71, Z-Asp-(D,L Ala(2′-quinolyl))-Val- Aspmethyl vinylsulfone] | – | > 10 | > 10 | > 10 | – | – | IC50 (caspase-7; [2]): 8.9 µM |
| CC(C)[C@H](NC(=O)[C@H](Cc1ccc2ccccc2n1)NC(=O)[C@H](CC(=O)O)NC(=O)OCc1ccccc1)C(=O)N[C@H](/C=C/S(=O)(=O)Oc1ccccc1)CC(=O)O [Compound 65, Z-Asp-Ala(2′-quinolyl)-Val-Aspphenoxy vinyl sulfone] | – | > 3.33 | – | – | 40 | 30 | IC50 (Caspase 3/7 (Glo3/7)): 0.2 µM |
| CC(C)[C@H](NC(=O)[C@H](Cc1ccc2ccccc2n1)NC(=O)[C@H](CC(=O)OC(C)(C)C)NC(=O)OCc1ccccc1)C(=O)N[C@H](/C=C/S(=O)(=O)N1CCOCC1)CC(=O)OC(C)(C)C [Compound 66, Z-Asp(β-tert-Butyl)-Ala(2′-quinolyl)-Val-Asp(β-tert-Butyl)morpholine vinyl sulfone] | – | – | – | – | – | 25 | – |
| Cc1ccc(S(=O)(=O)N[C@@H](Cc2ccc3ccccc3n2)C(=O)N[C@H](C(=O)N[C@H](/C=C(\Cl)S(C)(=O)=O)CC(=O)O)C(C)C)cc1 [Compound 50, Ts-Ala(2′quinolyl)-Val-Asp- αchlorovinyl methylsulfone] | > 3.33 | – | – | > 3.33 | – | – | activity against caspase-3 (in words) (caspase-3): The same result was observed |
| CC(C)[C@H](NC(=O)[C@H](CCC(=O)O)NC(=O)[C@H](CC(=O)O)NC(=O)OCc1ccccc1)C(=O)N[C@H](/C=C/S(C)(=O)=O)CC(=O)O [Compound 59, Z-Asp-Glu-Val-Aspmethyl vinyl sulfone] | – | > 3.33 | – | – | 70 | 45 | IC50 (caspase-9): 0.509 µM; effectivity in inhibiting PARP cleavage (in words) (Hela cells): showing effectivity; IC50 (caspase-7): 0.042 µM |
| COC(=O)CC[C@H](NC(=O)[C@H](CC(=O)OC)NC(=O)OCc1ccccc1)C(=O)N[C@H](C(=O)N[C@@H](CC(=O)OC)C(=O)CF)C(C)C [DEVD-fmk, reference compound] | – | – | – | – | – | 85 | IC50 (Hela cells; Homo sapiens, staurosporine): 20 µM |
| CC(C)[C@H](NC(=O)[C@H](Cc1ccc(O)cc1)NC(=O)[C@H](CC(=O)O)NC(=O)OCc1ccccc1)C(=O)N[C@H](/C=C/S(C)(=O)=O)CC(=O)O [Compound 76, Z-Asp-Tyr-Val-Aspmethyl vinyl sulfone] | – | > 3.33 | > 3.33 | > 3.33 | 60 | 55 | IC50 (Caspase 3/7 (Glo3/7)): 0.04 µM; reduction of the percentage of PARP positive cells after staurosporine treatment (Hela cells): more than 50% |
| CC(C)[C@H](NC(=O)[C@@H](Cc1ccc2ccccc2n1)NC(=O)[C@H](CC(=O)O)NC(=O)OCc1ccccc1)C(=O)N[C@H](/C=C/S(=O)(=O)c1ccccc1)CC(=O)O (stereo in doubt) [Compound 70, Z-Asp-(D,L Ala(2′-quinolyl))-Val- Aspphenyl vinylsulfone] | 0.3 | > 10 | > 10 | – | – | – | IC50 (caspase-7; [2]): > 10 µM |
| CC(C)[C@H](NC(=O)[C@H](Cc1ccc2ccccc2n1)NC(=O)[C@H](CC(=O)O)NC(=O)OCc1ccccc1)C(=O)N[C@H](/C=C(\Cl)S(C)(=O)=O)CC(=O)O [Compound 48, Z-Asp-Ala(2′-quinolyl)-Val-Asp- αchlorovinyl methylsulfone] | – | > 3.33 | – | > 3.33 | 65 | 45 | IC50 (Caspase 3/7 (Glo3/7)): 0.1 µM; effectivity in inhibiting PARP cleavage (in words) (Hela cells): showing effectivity |
| CC(C)[C@H](NC(=O)[C@H](Cc1c[nH]c2ccccc12)NC(=O)[C@H](CC(=O)O)NC(=O)OCc1ccccc1)C(=O)N[C@H](/C=C/S(C)(=O)=O)CC(=O)O [Compound 88, Z-Asp-Trp-Val-Aspmethyl vinyl sulfone] | – | > 3.33 | > 3.33 | – | 50 | 45 | – |
| CC(C)[C@H](NC(=O)[C@H](Cc1ccccn1)NC(=O)[C@H](CC(=O)O)NC(=O)OCc1ccccc1)C(=O)N[C@H](/C=C/S(=O)(=O)c1ccccc1)CC(=O)O [Compound 85, Z-Asp-Ala(2′-pyridyl)-Val-Aspphenyl vinylsulfone] | – | > 3.33 | > 3.33 | > 3.33 | – | 40 | – |
| CC(C)[C@H](NC(=O)[C@H](CCC(=O)O)NC(=O)[C@H](Cc1ccc(O)cc1)NC(=O)OCc1ccccc1)C(=O)N[C@H](/C=C/S(C)(=O)=O)CC(=O)O [Compound 82, Z-Tyr-Glu-Val-Aspmethyl vinyl sulfone] | – | > 3 | – | – | – | – | IC50 (caspase-7; [2]): > 5 µM |
| CC(C)[C@H](NC(=O)[C@H](Cc1ccc2ccccc2n1)NC(=O)[C@H](CC(=O)O)NC(=O)OCc1ccccc1)C(=O)N[C@H](/C=C/S(C)(=O)=O)CC(=O)O [Compound 55, Z-Asp-Ala(2′-quinolyl)-Val-Aspmethyl vinyl sulfone] | – | > 10 | > 3.33 | > 10 | 60 | 40 | inhibition at 10 µM (caspase-5; read-out: Inhibition of Caspase-5): 21%; inhibitory activity for caspase-5 (in words) (caspase-5; tested dose-range 1-3333 nM): No significant inhibitory activity; inhibition at 10 µM (caspase-9; read-out: Inhibition of Caspase-9): 57%; inhibitory activity for caspase-9 (in words) (caspase-9; tested dose-range 1-3333 nM): No significant inhibitory activity; IC50 (Caspase 3/7 (Glo3/7)): 0.1 µM; effectivity in inhibiting PARP cleavage (in words) (Hela cells): showing effectivity; inhibition at 10 µM (caspase-1; read-out: Inhibition of Caspase-1): 25%; inhibitory activity for caspase-1 (in words) (caspase-1; tested dose-range 1-3333 nM): No significant inhibitory activity |
| CC(C)[C@H](NC(=O)[C@@H](NC(=O)[C@H](CC(=O)O)NC(=O)OCc1ccccc1)C1Cc2ccccc2C1)C(=O)N[C@H](/C=C/S(=O)(=O)C(C)C)CC(=O)O [Compound 68, Z-Asp-Indanylglycine-Val-Aspisopropyl vinyl sulfone] | – | > 3.33 | > 3.33 | > 3.33 | 50 | 30 | – |

The next lines start with results.

| IC50 (caspase-3) [µM] | IC50 (caspase-5) [µM] | IC50 (caspase-9; [1]) [µM] | IC50 (caspase-1) [µM] | Structure (SMILES) | inhibition at 50 µM (Hela cells; [3]) [%] | inhibition at 50 µM (Hela cells; [4]) [%] | other results |
| --- | --- | --- | --- | --- | --- | --- | --- |
| > 10 | – | – | – | CC(C)(C)OC(=O)C[C@H](N)/C=C/S(C)(=O)=O.Cc1ccc(S(=O)(=O)O)cc1 (stereo in doubt) [Compound 33, Asp(β-tert-butyl)methyl vinyl sulfone tosyl salt] | – | – | activity against caspase-3 (in words) (caspase-3): devoid of any activity |
| > 10 | > 3.33 | > 10 | – | CC(C)[C@H](NC(=O)[C@H](Cc1ccc(O)cc1)NC(=O)OCc1ccccc1)C(=O)N[C@@H](C)C(=O)N[C@H](/C=C/S(=O)(=O)c1ccccc1)CC(=O)O [Compound 96, Z-Tyr-Val-Ala-Asp phenyl vinyl sulfone] | – | – | IC50 (caspase-7; [2]): > 10 µM |
| > 3.33 | > 3.33 | > 3.33 | > 3.33 | CC(C)[C@H](NC(=O)OCc1ccccc1)C(=O)N[C@H](/C=C/S(C)(=O)=O)CC(=O)O [Compound 61, Z-Val-Aspmethyl vinyl sulfone] | 5 | 5 | activity against caspase-3 (in words) (caspase-3): abolished completely the activity; IC50 (caspase-7; [2]): > 3.33 µM |
| > 2 | – | – | – | CC(C)[C@H](NC(=O)[C@@H](NC(=O)[C@H](CC(=O)OC(C)(C)C)NC(=O)OCc1ccccc1)c1ccccc1)C(=O)O [Compound 16, Z-Asp(β-tert-Butyl)-Phg-Val-OH.] (Cbz-Asp(OtBu)-[Phg]-Val-OH) | – | – | activity against caspase-3 (in words) (caspase-3): devoid of any activity |
| > 2 | – | – | – | CC(C)(C)OC(=O)C[C@H](N)/C=C/S(=O)(=O)c1ccccc1 [Compound 37, Asp Vinyl phenyl sulfone tosyl salt] | – | – | – |
| > 2 | – | – | – | CC(C)(C)OC(=O)C[C@@H](/C=C/S(=O)(=O)c1ccccc1)NC(=O)OC(C)(C)C [Compound 36, Boc-Asp-vinyl phenyl sulfone] | – | – | – |
| – | > 3 | > 3 | > 3 | COC(=O)C[C@@H](/C=C/S(C)(=O)=O)NC(=O)[C@@H](NC(=O)[C@@H](NC(=O)[C@H](CC(=O)OC)NC(=O)OCc1ccccc1)C1Cc2ccccc2C1)C(C)C [Compound 51, Z-Asp(β-methyl)-Indanylglycine-Val- Asp(β-methyl)methyl vinyl sulfone] | 80 | 65 | IC50 (caspase-7; [2]): > 3 µM |
